Assay results from US20190083498A1, “THERAPIES FOR HEMATOLOGIC MALIGNANCIES” (GILEAD CALISTOGA LLC, priority 2008, published 2019).

Tests used:
LB cells [1] = experiment: MM cell growth with IGF-1 or IL-6, MTT; format: cell-based, human; settings: 0.625 μM-[…], IL-6 or IGF-1, 48 h
Protocol: LB cells (Myelomonocytic myeloma cell line) were cultured for 48 h with control media; with the compound of formula I, in the presence or absence of either IL-6 or IGF-1. […] Cells were pulsed with 10 μL of 5 mg/mL MTT to each well for the last 4 hours of 48-hour cultures, followed by 100 μL isopropanol containing 0.04 N HCl. Absorbance was measured at 570/630 nm using a spectrophotometer (Molecular Devices).

LB cells [2] = experiment: LB cell proliferation with or without BMSCs, [3H]-thymidine uptake; format: cell-based, human; settings: 0.625 μM-10 μM, 48 hours
Protocol: LB cells were cultured with control media, and with the compound of formula I for 48 hours, in the presence or absence of BMSCs. Cell proliferation was assessed using [^3H]-thymidine uptake assay. All data represent mean (±SD) of triplicate experiment.

CCRF-SB cells = experiment: Cell cycle FACS analysis, propidium iodide; format: cell-based; settings: CCRF-SB ALL cell line
Protocol: Representative fluorescence-activated cell sorting (FACS) analysis of propidium iodide-stained CCRF-SB cells under normal growth conditions, and growth in the presence of the compound of formula I. The average percentage of cells in G0-G1, S, and G2-M phases is calculated in the table below the histographs.

[3] = tested on: IGROV-1 and OVCAR-3 cell lines; experiment: Proliferation of ovarian cancer cell lines, AlamarBlue; format: cell-based; settings: IGROV-1 and OVCAR-3, with serum
Protocol: IGROV-1 and OVCAR-3 cell lines were grown in the presence of serum plus the indicated concentrations of the compound of formula I. Proliferation was measured in triplicate wells by AlamarBlue assay (Invitrogen) 96-well plates.

[4] = human, in vivo
Protocol: This example provides data relating to the concentration of the compound of formula I in the blood of a healthy human subject on day 7. The concentration was monitored over a period of 12 hours, after oral administration of 50, 100, or 200 mg BID of the compound of formula I on day 7 of the study. FIG. 11 follows the plasma concentration of the drug over a period of 12 hours from administration.
In addition, single dose studies wherein 17-400 mg of the compound of formula I was administered in healthy volunteers was carried out.
Table 1, below, provides an overview of the subjects in the study, wherein either a singe dose (SD) or multiple dose (MD) of the compound of formula I is administered to a subject at varying amounts. The “n” values refer to the number of subjects in each group.

[5] = Blood glucose and insulin levels of a subject; format: in vivo, human
[6] = tested on: p110δ-negative cell lines; experiment: Growth inhibition of p110δ-negative MM cell lines, MTT; format: cell-based, human; settings: 48 h
MM.1S cells = experiment: AKT and ERK phosphorylation, immunoblotting; format: cell-based, human; settings: MM.1S cells with low expression of P110δ; 6 hours
Description: Whole-cell lysates were subjected to sodium dodecyl sulfate-polyacrylamide gel electrophoresis (SDS-PAGE) separation, transferred to Pure Nitrocellulose membranes (Bio-Rad Laboratories, Hercules, Calif.), and immunoblotted with anti-AKT, phospho(p)-AKT (Ser473, Thr 308), ERK1/2 , P-ERK1/2, P-PDK1, STAT, P-STAT, P-FKRHL, P-70S6K, LC3, and PI3K/p110 α Abs (Cell Signaling Danvers, Mass.); anti-p110β, PI3K/p110δ, Glyceraldehyde 3-phosphate dehydrogenase (GAPDH), α-tubulin, and actin Abs (Santa Cruz Biotechnology, Calif.); and anti-p110 γ Ab (Alexis, San Diego, Calif.): and anti-LC3 Ab (Abgent, San Diego, Calif.).
Actin Ab was used as a loading control. […] Whole cell lysates were subjected to immunoblotting using AKT, P-AKT (Ser473 and Thr308), ERK1/2, P-ERK1/2, P-PDK1, and P-FKRHL antibodies. α-tubulin is used as a loading control.

INA-6 and LB MM cells = experiment: Autophagy: LC3 accumulation, AVO acridine orange staining, LC3/beclin-1 western blot; format: cell-based, human
Description: Samples were examined under a fluorescence microscope.
Autophagosome formation was defined by the accumulation of LC3; arrows indicate autophagosomes, FIG. 33A.
GAPDH served as a loading control.

primary MCL cells = experiment: Constitutive PI3K signaling in primary MCL cells; format: cell-based, human; settings: two patients; dose dependent; 0.1 μM or 1 μM
MCL cell lines = experiment: Survival factor signaling (pAkt) in MCL cell lines; format: cell-based
[7] = tested on: CLL cells on StromaNKTert; experiment: Calcein-based adhesion assay of CLL cells on stroma; format: cell-based, human
Protocol: Calcein-based adhesion assay: a confluent monolayer of CD154+ L or StromaNKTert cells was generated by plating 1×10^4 cells/well in 96-well plates for 24 hours. Single cell suspensions of CLL cells at 0.5×10^6 cells/ml were then labeled with 1 μg/mL Calcein-AM (Invitrogen) for 1 hour. Cells were then spun down and treated with compound or vehicle for 1 to 24 hours. Non-adherent cells were washed off by aspiration. CLL cell adhesion was quantified by fluorimetry (Ex/Em=485/520 nm), and visualized directly using the Nikon TE2000 inverted live-cell imaging system.

[8] = tested on: CLL cells with or without StromaNKTert; experiment: CLL cell viability/apoptosis in stromal co-culture, Annexin V/PI FACS; format: cell-based, human; settings: 24 hours
Protocol: CLL cell and stromal cell co-cultures: CLL cells were cultured under standardized conditions on stromal cell lines or primary NLC. Briefly, stromal cells were seeded one day prior to each experiment onto 24-well plates (Corning Life Sciences) at a concentration of 3×10^5 cells/mL/well and incubated at 37° C. in 5% CO2. Stromal cell confluence was confirmed by phase contrast microscopy, and CLL cells were then added onto the stromal cell layer at a concentration of 3×10^6 cells/mL. Cultures were then treated with compounds for the specified time periods. CLL cells were removed for analysis by gentle pipetting with media, and were then washed in PBS prior to analysis. A 24-hour co-culture time point was used unless otherwise indicated.
Cell viability testing and reagents: CLL cell viability was determined by analysis of Annexin V-FITC (BD Biosciences, San Diego, Calif.) and Propidium Iodine (PI) (Sigma) by FACS.
To determine whether PI3K inhibition increased the sensitivity of stroma-exposed CLL cells by increasing priming, PB-derived CLL cells cultured with or without StromaNKTert cells for 24 hours and were examined using Annexin-PI and BH3 profiling. […] Stromal co-culture of four CLL patient samples led to protection from apoptosis in untreated cells.

CC[C@H](Nc1ncnc2[nH]cnc12)c1nc2cccc(F)c2c(=O)n1-c1ccccc1 [Compound I, 5-fluoro-3-phenyl-2-[1-(9H-purin-6-ylamino)-propyl]-3H-quinazolin-4-one]
MM cell growth in the presence of cell growth stimulatory cytokines (LB cells [1]): inhibits MM cell growth | LB cell growth in the presence of BMSC (LB cells [2]): reduced | cell cycle effect (CCRF-SB cells): G0/G1 cell cycle arrest | proliferation of ovarian cancer cell lines [3]: inhibits proliferation | tolerability in normal healthy volunteers [4]: well tolerated | time the concentration exceeds the PI3Kδ EC50 concentration in basophil ([4]; 7 day): at least 12 hours | insulin levels ([5]; after 7 days of treatment): remained within the normal range | blood glucose concentration ([5]; after 10 days, highest dosage (50-200 mg BID)): remained steady | cytotoxicity in p110δ-negative cell lines [6]: minimal cytotoxicity | phosphorylation of AKT or ERK (MM.1S cells): did not affect | LC3 staining (immunofluorescence) (INA-6 and LB MM cells; 5 μM, 6 h, INA-6 and LB cells): markedly increased LC 3 staining | LC3-II and Beclin1 protein (INA-6 and LB MM cells; INA-6, 6 h): markedly increased | acidic vesicular organelles (acridine orange staining) (INA-6 and LB MM cells; LB and INA-6 cells): development of AVOs | constitutive PI3K signaling in primary MCL cells (primary MCL cells): block constitutive PI3K signaling | pAkt in MCL lines exposed to survival factors (MCL cell lines): significant reduction of pAkt | CLL cell adherence to stroma after one hour [7]: reduced adherence | CLL cell adherence to stroma at 24 hours ([7]; 10 μM): less adherent | CLL cell viability in stromal co-culture, single agent ([8]; 10 μM alone, two patients): profound stroma-mediated resistance | apoptosis versus control in the absence of stroma ([8]; four CLL patient samples): induce more apoptosis than the control | apoptosis versus control in the presence of stroma ([8]; four CLL patient samples): induce significantly more apoptosis than the control
